According to US9949947B2, “Delphinidin for combating melanoma cells” (Sapiotec GmbH, priority 2012, dated 2018):

Key:
[1] = Stability in aqueous 0.9% NaCl solution at 37° C., delphinidin content by HPLC (Example 5); format: physicochemical; details: starting concentration 1.584 mg/ml (complex) or 0.0216 mg/ml (delphinidin)
Protocol: To determine the delphinidin chloride content in the delphinidin-containing solutions, a reversed-phase HPLC method was used similar to the one already described above. The following reagents were used in this case: […] The solutions were prepared at room temperature and subsequently stored in the dark at 37° C. in closed vials. […] The table below gives the content determined as a percentage of the starting concentration stated above. The determination of the delphinidin content in the samples was calculated with the aid of the Agilent ChemStation software using the calibration with the external standard described.

[2] = test system: human melanoma cell line A-375; test: Induction of apoptosis, sub-G1 peak method (Example 6); format: cell-based; details: A-375, 24 hours; 10-3000 μg/ml delphinidin-SBE-β-CD or 15-120 μM delphinidin Cl; low and higher cell confluence (FIGS. 1, 2a, 2b)
[3] = test system: human melanoma cell line A-375; test: Cell viability test, WST-1 assay (Example 7); format: cell-based; details: A-375, 24 hours; 10-3000 μg/ml delphinidin-SBE-β-CD or 15-120 μM delphinidin Cl; low and higher cell confluence (FIGS. 3a, 3b)
[4] = test system: human dermal microvascular endothelial cells; test: Cytotoxicity, cell vitality by ATP luminescence assay, endothelial cells (Example 12); format: cell-based; details: 0.1-100 μM (0.1 μM; 3.2 μM; 100 μM), Day 1-Day 4, FIG. 18
Text: The human dermal microvascular endothelial cells were obtained by the standard method known to those skilled in the art of Hewett and Murray (1993) [Hewett P. W. and Murray J. C. (1993) Immunomagnetic purification of human microvessel endothelial cells using Dynabeads coated monoclonal antibodies to PECAM-1. Eur J Cell Biol 62: 451-454; Hewett P. W. & Murray J. C. (1993) Human microvessel endothelial cells: Isolation, culture and characterization. In Vitro Cell Biol: 823-830].

[5] = test system: A-375 cells; test: Microscopic analysis of cell morphology after 24 hours of treatment; details: A-375, after 24 hours of treatment, high concentrations (FIG. 4)
[6] = test system: human fibroblasts; test: Cytotoxicity, cell vitality by ATP luminescence assay, fibroblasts (Example 12); details: 0.1-100 μM (0.1 μM; 3.2 μM; 100 μM), FIG. 19
Protocol: The cells used were primary, even isolated fibroblasts and microvascular endothelial cells from human donor skin.
To isolate the fibroblasts, the tissue cell structure was dissolved by means of a one-hour incubation with trypsin-EDTA solution. To stop the cell detachment reaction, stop medium was added to the skin. The piece of skin was then swirled twice in PBS resulting in a suspension of fibroblasts. The fibroblasts obtained were centrifuged at 4° C. for 5 min at 100 revolutions per minute and were used after quantification.
In the experiments according to Example 12, the effect of the substances investigated on the vitality of human fibroblasts and endothelial cells was investigated using the ATP luminescence assay, which is known to those skilled in the art and is briefly summarized below for the sake of completeness.
By the inhibition of endogenous ATPases, the ATP content liberated by lysis can thus be used as a measure for the number of vital cells. For the quantification, the liberated ATP is coupled to a reaction catalyzed by the enzyme luciferase, in which the ATP-dependent oxidation of the substrate luciferin to oxyluciferin, carbon dioxide, AMP and inorganic phosphate takes place in the presence of Mg^2+, with release of light. […] This is measured in RLU (relative light units), an independent unit which reflects the amount of ATP in the sample. […]

[7] = Solubility of delphinidin chloride in aqueous cyclodextrin solutions (Example 1); details: pure water, cyclodextrin concentration 0; excess delphinidin chloride, stirred at 30° C. for 20 h in the dark, filtered 0.22 μm
[8] = test system: cell line A-375; test: Induction of apoptosis in combination with TRAIL, sub-G1 peak method (Example 9); format: cell-based, human; details: A-375, 24 hours; complex partner as control
Protocol: The same cell line and method was used in the experiments as in the preceding section II. […] The experiments were carried out in parallel both at low (low cell confluence) and higher cell density (higher cell confluence), of which the results processed graphically are shown in FIGS. 11a (low cell confluence) and 11b (higher cell confluence).

[9] = test system: A-375 cells; test: Cell viability test in combination with TRAIL (Example 10); format: cell-based, human; details: A-375, 24 hours; complex partner as control
[10] = test system: A-375 cells; test: Real-time cell analysis (RTCA) in combination with TRAIL, xCELLigence system (Example 11); format: cell-based, human; details: A-375, high cell confluence; TRAIL 0.02 μg/ml, SBE-β-CD 30 or 1000 μg/ml (FIGS. 16 and 17)

Compound: Oc1cc(O)c2cc(O)c(-c3cc(O)c(O)c(O)c3)[o+]c2c1.[Cl-] [delphinidin Cl, delphinidin chloride]
- Delphinidin content as a percentage of the starting concentration ([1]; 0 h): 100%
- Delphinidin content as a percentage of the starting concentration ([1]; 1 h, 37° C. in the dark): 8.3%
- Delphinidin content as a percentage of the starting concentration ([1]; 2 h, 37° C. in the dark): 6.5%
- Delphinidin content as a percentage of the starting concentration ([1]; 3 h, 37° C. in the dark): 5.6%
- Delphinidin content as a percentage of the starting concentration ([1]; 4 h, 37° C. in the dark): 5.1%
- Induction of apoptosis (sub-G1 peak) [2]: significant dose-dependent induction of apoptosis
- Effect on cell viability (loss of vital cells) [3]: loss of vital cells with increasing dose
- Cytotoxic effects on cell vitality [4]: no significant cytotoxic effects
- Morphology of the cells under microscopic analysis [5]: globular and/or detached
- Cytotoxic effects on cell vitality [6]: no significant cytotoxic effects
- Delphinidin chloride, solubility achievable [7]: 70 µg/mL

Compound: sulfobutyl ether β-cyclodextrin [SBE-β-CD]
- Induction of apoptosis (sub-G1 peak) [2]: no effect
- Effect on cell viability (loss of vital cells) [3]: no effect
- Induction of apoptosis (sub-G1 peak) [8]: at control level
- Cell vitality [9]: at control level
- Intensification of TRAIL sensitivity [10]: No intensification of TRAIL sensitivity
